Results published in PMC12933751 (RSC Advances, 2026).

Molecular target: T1, ArnT (undecaprenyl phosphate-alpha-4-amino-4-deoxy-L-arabinose arabinosyl transferase) (Pseudomonas aeruginosa, UniProt Q02R27)
T1 sequence (Q02R27 1-549): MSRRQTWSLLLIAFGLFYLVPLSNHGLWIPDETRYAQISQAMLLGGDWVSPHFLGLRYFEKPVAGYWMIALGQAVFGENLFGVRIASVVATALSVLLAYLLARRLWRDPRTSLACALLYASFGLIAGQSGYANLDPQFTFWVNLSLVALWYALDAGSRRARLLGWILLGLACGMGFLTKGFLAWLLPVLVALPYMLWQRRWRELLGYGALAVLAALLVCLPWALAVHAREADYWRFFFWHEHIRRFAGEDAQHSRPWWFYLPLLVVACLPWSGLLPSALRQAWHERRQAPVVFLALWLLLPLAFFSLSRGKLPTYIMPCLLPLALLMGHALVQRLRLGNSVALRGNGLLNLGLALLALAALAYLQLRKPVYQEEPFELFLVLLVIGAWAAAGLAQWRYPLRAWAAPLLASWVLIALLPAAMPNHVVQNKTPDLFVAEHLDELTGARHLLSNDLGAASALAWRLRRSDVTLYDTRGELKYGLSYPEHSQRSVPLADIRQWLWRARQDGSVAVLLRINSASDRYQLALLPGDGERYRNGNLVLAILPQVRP
Experiment: intrinsic tryptophan fluorescence quenching titration, one-site binding fit

Kd: ~10 µM
SMILES: C[C@@]12CC[C@@H]3[C@@](CC[C@@H]4[C@@](C)(COC(=O)C(=O)O)CCC[C@]43C)(CC1)C2 [FDO-H]
